In brackets after ≈: the same amount, converted by molar mass.
What was measured:
Type in all cases: cell-based
[1] = tested on: erg11ΔΔ/erg3ΔΔ mutant C. albicans; test: Growth curve analysis of C. albicans lacking CYP51; conditions: entire range of concentrations (64 to 1 μg/mL), YPAD, 30° C., 48 h
Protocol: (§1) The clinically used FLC and VOR act primarily by preventing ergosterol biosynthesis via inhibition of CYP51. Analysis was done to determine whether fungal growth inhibition by the hybrids required the presence of the ERG11 gene that encodes for CYP51. The antifungal activities of hybrids 1 and 5 and of FLC and VOR were determined against an erg11ΔΔ/erg3ΔΔ mutant C. albicans strain and against C. albicans SN152 from which this double knockout strain was derived (Table S2). […] Yeast growth was followed at OD600 over 48 h in 96-well plates containing serial double dilutions of the tested hybrids.
Cells of erg11ΔΔ/erg3ΔΔ mutant C. albicans were grown in YPAD media at 30° C. and treated with different concentrations of the tested hybrids. Growth was measured by recording the OD600 values every 40 minutes over a 48-h course on an automated plate reader.
Growth curve analyses: Growth curves were determined using the double-dilution method in 96-well plates. Starter cultures were streaked from glycerol stock onto YPAD agar plates and grown for 24 h at 30° C. Colonies were suspended in 1 mL PBS and diluted to 1×10^−3 OD600 and then diluted 1:100 into fresh medium. Hybrids dissolved in DMSO were added to YPAD broth (32 μL stock solution in 1218 μL of YPAD broth), and serial double dilutions of hybrids in YPAD were prepared in flat-bottomed 96-well microplates (Corning) to enable testing of concentrations ranging from 64 μg/mL to 1 μg/mL. Control wells with yeast cells but no drug (100% growth) and blank wells containing only YPAD (0% growth) were prepared. An equal volume (100 μL) of yeast suspensions in YPAD broth was added to each well with the exceptions of the blank wells. Growth was determined at 30° C. by measuring the OD600 using a plate reader (Infinite M200 PRO, Tecan) every 40 minutes over 48 h. Each concentration was tested in triplicate, and results were confirmed by two independent sets of experiments. FLC and VOR were used as control drugs.

[2] = tested on: C. albicans 742 (erg11ΔΔ/erg3ΔΔ mutant C. albicans strain); test: MIC80 broth double-dilution assay, strain lacking CYP51; conditions: YPAD medium, 30° C., 24 h; erg11ΔΔ/erg3ΔΔ mutant lacking CYP51
Protocol: (§2) The antifungal activities of the 24 azole-COX inhibitor hybrids were evaluated against a panel of 16 representative strains of different species of the genus Candida. Candida species cause both superficial and systemic infections. The panel included strains of C. albicans, C. glabrata, C. parapsilosis, C. tropicalis, C. guilliermondii, C. dubliniensis, and C. auris (Table S2). To evaluate antifungal activity, the minimal inhibitory concentration 80% (MIC80) values were determined, which were defined as the lowest drug concentrations with turbidity (measured at OD600) less than or equal to that of specific 1:5 dilutions of the growth control. As controls, FLC and VOR, were tested.
as §1
(§3) C. albicans, C. glabrata, C. parapsilosis, C. guilliermondii, C. tropicalis, and C. dubliniensis MICs were determined using CLSI M27-A3 guidelines with minor modifications. Starter cultures were streaked from glycerol stock onto YPAD agar plates and grown for 24 h at 30° C. Colonies were suspended in 1 mL PBS and diluted to 1×10^−3 OD600 and then diluted 1:100 into fresh medium. Hybrids dissolved in DMSO were added to YPAD broth (32 μL stock solution in 1218 μL of YPAD broth), and serial double dilutions of hybrids in YPAD were prepared in flat-bottomed 96-well microplates (Corning) to enable testing of concentrations ranging from 64 μg/mL to 0.003 μg/mL. Control wells with yeast cells but no drug and blank wells containing only YPAD were prepared. An equal volume (100 μL) of yeast suspensions in YPAD broth was added to each well with the exceptions of the blank wells. MIC values (Tables S4-S6) were determined after 24 h at 30° C. by measuring the OD600 using a plate reader (Infinite M200 PRO, Tecan). MIC values were defined as the point at which the OD600 was reduced by >80% compared to the no-drug wells. Each concentration was tested in triplicate, and results were confirmed by two independent sets of experiments. FLC and VOR were used as control drugs.

C. albicans SN152 = test: MIC80 broth double-dilution assay; conditions: YPAD medium, 30° C., 24 h; parent strain of the erg11ΔΔ/erg3ΔΔ mutant
Protocol: as §2
(§4) MIC80 values were determined using the broth microdilution method over a concentration range of 0.003-64 μg/mL. Orange circles represent C. albicans strains, yellow circles represent C. glabrata strains, and green circles represent C. parapsilosis, C. tropicalis, C. dubliniensis and C. auris. Cells were grown in YPAD medium at 30° C. (For C. auris strains 37° C.) 24 h. Each concentration was tested in triplicate, and results were confirmed in at least two independent experiments.
as §1, §3

C. albicans ATCC 24433 = test: MIC80 broth double-dilution assay; conditions: YPAD medium, 30° C., 24 h
Protocol: as §2, §4, §3

C. albicans P-87 = test: MIC80 broth double-dilution assay; conditions: YPAD medium, 30° C., 24 h
Protocol: as §2, §4, §3

C. dubliniensis T-99 = test: MIC80 broth double-dilution assay; conditions: YPAD medium, 30° C., 24 h
Protocol: as §2, §4, §3

C. albicans ATCC 90028 = test: MIC80 broth double-dilution assay; conditions: YPAD medium, 30° C., 24 h
Protocol: as §2, §4, §3

C. albicans SC5314 = test: MIC80 broth double-dilution assay; conditions: YPAD medium, 30° C., 24 h
Protocol: as §2, §4, §3

[3] = tested on: C. parapsilosis ATCC 22019; test: MIC80 broth double-dilution assay; conditions: YPAD medium, 30° C., 24 h
Protocol: as §2, §4, §3

C. tropicalis 660 = test: MIC80 broth double-dilution assay; conditions: YPAD medium, 30° C., 24 h
Protocol: as §2, §4, §3

C. guilliermondii T-47 = test: MIC80 broth double-dilution assay; conditions: YPAD medium, 30° C., 24 h
Protocol: as §2, §3

[4] = tested on: panel of 16 representative strains of different species of the genus Candida; test: Antifungal activity (MIC80) against a panel of Candida strains, comparison; conditions: azole-susceptible strains
Protocol: as §2, §4, §3

C. auris ATCC MYA5001 = test: MIC broth double-dilution assay with MTT (CLSI M27-A3); conditions: YPAD medium, 37° C., 24 h, growth score 0 or 1
Protocol: (§5) Minimal inhibitory concentration broth double-dilution assay: C. auris minimal inhibitory concentrations (MICs) were determined using CLSI M27-A3 guidelines with minor modifications. Starter cultures were streaked from glycerol stock onto YPAD agar plates and grown for 24 h at 37° C. Colonies were suspended in 1 mL PBS and diluted to 1×10^−3 optical density at 600 nm (OD600) and then diluted 1:100 into fresh medium. hybrids dissolved in DMSO were added to YPAD broth (32 μL stock solution in 1218 μL of YPAD broth), and serial double dilutions of hybrids in YPAD were prepared in flat-bottomed 96-well microplates (Corning) to enable testing of concentrations ranging from 64 μg/mL to 0.007 μg/mL. Control wells with yeast cells but no drug and blank wells containing only YPAD were prepared. An equal volume (100 μL) of yeast suspension in YPAD broth was added to each well with the exceptions of the blank wells. After incubation for 24 h at 37° C., MTT (50 μL of a 1 mg/mL solution in ddH2O) was added to each well followed by additional incubation at 37° C. for 2 h. MIC values (Table S3) were defined as the lowest concentration of an antifungal agent that caused a specified reduction in visible growth as per the CLSI M27-A3 protocol. The magnitude of reduction in visible growth was assessed using the following numerical scale: 0, optically clear; 1, slightly hazy; 2, prominent decrease (˜50%) in visible growth; 3, slight reduction in visible growth; and 4, no reduction in visible growth. The MIC was defined based on reduction in growth to 0 or 1. Results were confirmed in two independent experiments, and each concentration was tested in triplicate. FLC and VOR were used as control drugs.

C. auris ATCC MYA5002 = test: as above; conditions: YPAD medium, 37° C., 24 h, growth score 0 or 1
Protocol: as §5

SMILES: CC(C(=O)O)c1ccc(-c2ccccc2)c(F)c1 (centres unmarked) [flurbiprofen]
- Effect on growth (OD600) of the double knockout mutant [1]: Dose-dependent growth reduction

SMILES: CC(C)Cc1ccc([C@@H](C)C(=O)NC[C@@](O)(Cn2cncn2)c2ccc(F)cc2F)cc1 [Hybrid 3]
- MIC80 against C. albicans 742 [2]: 64 µg/mL (≈ 145 µM)
- MIC80 against C. albicans SN152 (C. albicans SN152): 0.06 µg/mL (≈ 0.136 µM)
- MIC80 against C. albicans 24433 (C. albicans ATCC 24433): 0.12 µg/mL (≈ 0.271 µM)
- MIC80 against C. albicans P-87 (C. albicans P-87): 0.03 µg/mL (≈ 0.0678 µM)
- MIC80 against C. dubliniensis T-99 (C. dubliniensis T-99): 1 µg/mL (≈ 2.26 µM)
- MIC80 against C. albicans 90028 (C. albicans ATCC 90028): 0.06 µg/mL (≈ 0.136 µM)
- MIC80 against C. albicans SC5314 (C. albicans SC5314): 0.03 µg/mL (≈ 0.0678 µM)
- MIC80 against C. parapsilosis 22019 [3]: 0.5 µg/mL (≈ 1.13 µM)
- MIC80 against C. tropicalis 660 (C. tropicalis 660): 1 µg/mL (≈ 2.26 µM)
- MIC80 against C. guilliermondii T-47 (C. guilliermondii T-47): 1 µg/mL (≈ 2.26 µM)
- Antifungal potency (MIC80) in comparison with FLC, VOR or the corresponding stereoisomer [4]: more potent than the corresponding S-configured ibuprofen hybrid 4

SMILES: CC(C)Cc1ccc(C(C)C(=O)O)cc1 (centres unmarked) [ibuprofen]
- Effect on growth (OD600) of the double knockout mutant [1]: Dose-dependent growth reduction

SMILES: COc1ccc2cc([C@@H](C)C(=O)NC[C@](O)(Cn3cncn3)c3ccc(F)cc3F)ccc2c1 [Hybrid 10]
- MIC80 against C. albicans 742 [2]: >64 µg/mL
- MIC against C. auris 5001 (C. auris ATCC MYA5001): 0.5 µg/mL (≈ 1.07 µM)
- MIC against C. auris 5002 (C. auris ATCC MYA5002): 16 µg/mL (≈ 34.3 µM)
- MIC80 against C. albicans SN152 (C. albicans SN152): 0.012 µg/mL (≈ 0.0257 µM)
- MIC80 against C. albicans 24433 (C. albicans ATCC 24433): 0.25 µg/mL (≈ 0.536 µM)
- MIC80 against C. albicans P-87 (C. albicans P-87): 0.25 µg/mL (≈ 0.536 µM)
- MIC80 against C. dubliniensis T-99 (C. dubliniensis T-99): 2 µg/mL (≈ 4.29 µM)
- MIC80 against C. albicans 90028 (C. albicans ATCC 90028): 0.12 µg/mL (≈ 0.257 µM)
- MIC80 against C. albicans SC5314 (C. albicans SC5314): 0.12 µg/mL (≈ 0.257 µM)
- MIC80 against C. parapsilosis 22019 [3]: 1 µg/mL (≈ 2.14 µM)
- MIC80 against C. tropicalis 660 (C. tropicalis 660): 4 µg/mL (≈ 8.57 µM)
- MIC80 against C. guilliermondii T-47 (C. guilliermondii T-47): 1 µg/mL (≈ 2.14 µM)

SMILES: CC(C)Cc1ccc([C@@H](C)C(=O)NC[C@](O)(Cn2cncn2)c2ccc(F)cc2F)cc1 [Hybrid 2]
- MIC80 against C. albicans 742 [2]: 64 µg/mL (≈ 145 µM)
- MIC against C. auris 5001 (C. auris ATCC MYA5001): 0.06 µg/mL (≈ 0.136 µM)
- MIC against C. auris 5002 (C. auris ATCC MYA5002): 1 µg/mL (≈ 2.26 µM)
- MIC80 against C. albicans SN152 (C. albicans SN152): 0.007 µg/mL (≈ 0.0158 µM)
- MIC80 against C. albicans 24433 (C. albicans ATCC 24433): 0.015 µg/mL (≈ 0.0339 µM)
- MIC80 against C. albicans P-87 (C. albicans P-87): 0.007 µg/mL (≈ 0.0158 µM)
- MIC80 against C. dubliniensis T-99 (C. dubliniensis T-99): 0.12 µg/mL (≈ 0.271 µM)
- MIC80 against C. albicans 90028 (C. albicans ATCC 90028): 0.007 µg/mL (≈ 0.0158 µM)
- MIC80 against C. albicans SC5314 (C. albicans SC5314): 0.007 µg/mL (≈ 0.0158 µM)
- MIC80 against C. parapsilosis 22019 [3]: 0.015 µg/mL (≈ 0.0339 µM)
- MIC80 against C. tropicalis 660 (C. tropicalis 660): 0.5 µg/mL (≈ 1.13 µM)
- MIC80 against C. guilliermondii T-47 (C. guilliermondii T-47): 0.06 µg/mL (≈ 0.136 µM)
- Antifungal potency (MIC80) in comparison with FLC, VOR or the corresponding stereoisomer [4]: lowest MIC80 values against all of the azole-susceptible strains

Reference: patent US20250018048A1, “FLUCONAZOLE-COX INHIBITOR HYBRIDS: A DUAL-ACTING CLASS OF ANTIFUNGAL AZOLES” (Ramot at Tel-Aviv University Ltd., priority 2022, published 2025)
